One may read the EC50 as the midpoint of the concentration-response curve.

The test system of series [1] is differentiated 3T3-L1 cell. The experiment in a line: 2-Deoxy-D-[2,6-3H] glucose uptake assay. The format is cell-based. To be noted: differentiated 3T3-L1 cells, 24 h with compound, 0.5 nM insulin; concentration giving 50% of maximum enhancement of insulin activation; read-out: 2-deoxyglucose uptake (EC50 nM). On the procedure:
1) 2-Deoxy-D-[2,6-3H] glucose uptake assay (in differentiated 3T3-L1 cell)
Undifferentiated adipocyte 3T3-L1 cells were inoculated in a 24-well plate and cultivated in a CO2 incubator at 37° C. To induce differentiation of the undifferentiated adipocytes, the cells were then incubated in a differentiation medium. After adding a certain concentration of each of the test compounds to the medium, the cells were again incubated for 24 hours. After removing the medium, the cells were washed with phosphate buffer, and 0.5 nM of insulin in phosphate buffer was added to the washed cells, followed by incubation for 40 minutes. Then, 0.5 uCi of 2-deoxy-D-[2,6-3H] glucose per well was again added to the cells, which were let stand for 4 minutes. Then, the cells were washed with phosphate buffer, and cell lysis buffer was added, so as to dissolve the cell membranes. The cell sample was placed into a liquid scintillation cocktail solution. The radioactivity of the sample was counted by a liquid scintillation counter.

In series [2] the test system is 3T3-L1 cells. The experiment in a line: Triglyceride accumulation assay. The conditions noted are these: 4 days with compound, concentration giving 50% of maximum enhancement of rosiglitazone activation. The series is classed as cell-based. On the procedure:
2) Triglyceride accumulation assay (in 3T3-L1 cells)
Undifferentiated adipocyte 3T3-L1 cells were inoculated in a 24-well plate and cultivated in a CO2 incubator at 37° C. To induce differentiation of the undifferentiated adipocytes, the cells were then incubated in a differentiation medium for 48 hours. After adding a certain concentration of each of the test compounds to the differentiation medium, the cells were again incubated for 4 days. Then, the final cell sample was placed into 200 μl of 2-propanol. The amount of triglyceride in the cells were measured by Triglyceride Kit [YEONGDONG PHARMACEUTICAL CO. LTD., Korea] commercially available.

For series [3], the system named is mice with diabetes (KK/Ay). The experiment in a line: Blood glucose- and blood lipid-lowering action in mice with diabetes. The conditions noted are these: male KK/Ay mice, daily oral administration for 5 days; for Blood glucose (ED25): dose reducing blood glucose by 25%; for Triglyceride (ED25): dose reducing triglyceride by 25%. The series is classed as in vivo. On the procedure:
Male mice with diabetes (KK/Ay: 10 weeks old, 5 animals/group) were housed and given free access to water and food. The animals received a daily oral administration of the test compounds for 5 days. After the last dose, a blood sample was drawn via the orbital sinus.
The plasma was analyzed for blood glucose content using the Glucose-E kit (YEONGDONG PHARMACEUTICAL CO. LTD., Korea), and for triglyceride content using the Triglyceride kit (YEONGDONG PHARMACEUTICAL CO. LTD., Korea).

Series [4] concerns primary cultured rat hepatocytes. The experiment in a line: Cytotoxicity assay in primary cultured rat hepatocytes (neutral red). The conditions noted are these: for Safety index (TC25 nM/EC50 nM): TC25 in hepatocyte cytotoxicity assay / EC50 in triglyceride accumulation assay; for Cytotoxicity in hepatocyte (TC25 uM): primary rat hepatocytes, 24 h, neutral red, 25% toxic concentration.
Protocol: Hepatocytes isolated from rat were inoculated in a collagen-coated 24 well plate and was incubated in a CO2 incubator at 37° C. for 24 hours. Then, a certain concentration of each of the test compounds was added, and the cells were again incubated for 24 hours. The cells were then incubated in a 0.4% neutral red containing medium for 4 hours and washed once with phosphate buffer. 0.5 ml of a solution of 1% acetic acid-50% ethanol was added to the cells, which were let stand. 200 ul of the cell sample was taken and absorbance was measured at 570 nm. The cytotoxicity assay performed on hepatocytes was measured as 25% toxic concentration (TC25, uM). Then, the safety index, i.e. the TC25 value in the cytotoxicity assay in hepatocyte/the EC50 value in the triglyceride accumulation assay, was calculated.

Regarding `CN(CCOc1ccc(C=C2SC(=O)NC2=O)cc1)c1cc(Oc2ccc(-c3ccccc3)cc2)ncn1` [Ex. 12, 5-(4-[2-(N-methyl-N-(6-(4-(4-phenyl)phenoxy)pyrimidinyl)amino)ethoxy]benzylidene)-2,4-thiazolidinedione], the EC50 in series [1] is 49.5 nM. The EC50 in series [2] amounted to 46.8 nM. Also, in series [3], the “Blood glucose (ED25)” value is 4.1 mg/kg and the “Triglyceride (ED25)” value turned out to be 25 mg/kg. In series [4], the “Safety index (TC25 nM/EC50 nM)” value was determined as 1816 and the “Cytotoxicity in hepatocyte (TC25 uM)” value was 85000 nM.

For the compound “5-(4-[2-(N-methyl-N-(2-(4-(4-fluoro)phenoxy)pyridinyl)amino)ethoxy]benzyl)-2,4-thiazolidinedione [Ex. 33]”, the EC50 in series [1] was found to be 8.9 nM. In addition, in series [2], the EC50 came out at 5.6 nM. In series [3], the “Blood glucose (ED25)” value stood at 1.1 mg/kg and the “Triglyceride (ED25)” value is on record as 6.5 mg/kg. For the same compound, in series [4], the “Safety index (TC25 nM/EC50 nM)” value amounted to 17679 and the “Cytotoxicity in hepatocyte (TC25 uM)” value was determined as 99000 nM.

As for `CN(CCOc1ccc(C=C2SC(=O)NC2=O)cc1)c1cc(Oc2ccc(Cl)cc2)ncn1` [Ex. 5, 5-(4-[2-(N-methyl-N-(6-(4-(4-chloro)phenoxy)pyrimidinyl)amino)ethoxy]benzylidene)-2,4-thiazolidinedione], the EC50 in series [1] was determined as 45 nM. Further, in series [2], the EC50 worked out at 35 nM. In addition, in series [3], the “Blood glucose (ED25)” value worked out at 4.0 mg/kg and the “Triglyceride (ED25)” value is on record as 28 mg/kg. In series [4], the “Safety index (TC25 nM/EC50 nM)” value was found to be 2657 and the “Cytotoxicity in hepatocyte (TC25 uM)” value was found to be 93000 nM.

As to `CN(CCOc1ccc(CC2SC(=O)NC2=O)cc1)c1cc(Oc2ccccc2)ccn1` (stereo not drawn) [Ex. 22, 5-(4-[2-(N-methyl-N-(2-(4-phenoxy)pyridinyl)amino)ethoxy]benzyl)-2,4-thiazolidinedione], the EC50 in series [1] was 1.8 nM. Besides, the EC50 in series [2] was 0.54 nM. Further, in series [3], the “Blood glucose (ED25)” value is on record as 0.7 mg/kg and the “Triglyceride (ED25)” value came out at 3.9 mg/kg. In addition, in series [4], the “Safety index (TC25 nM/EC50 nM)” value came to 137037 and the “Cytotoxicity in hepatocyte (TC25 uM)” value worked out at 74000 nM.

In the case of “5-(4-[2-(N-methyl-N-(2-(4-(4-chloro)phenoxy)pyridinyl)amino)ethoxy]benzyl)-2,4-thiazolidinedione [Ex. 34]”, the EC50 in series [1] is 4 nM. The EC50 in series [2] came out at 1.5 nM. For the same compound, in series [3], the “Blood glucose (ED25)” value is given as 1.9 mg/kg and the “Triglyceride (ED25)” value worked out at 5.6 mg/kg. For the same compound, in series [4], the “Safety index (TC25 nM/EC50 nM)” value worked out at 48667 and the “Cytotoxicity in hepatocyte (TC25 uM)” value came to 73000 nM.

In the case of `CN(CCOc1ccc(CC2SC(=O)NC2=O)cc1)c1cc(Oc2ccc(-c3ccccc3)cc2)ncn1` (stereo not drawn) [Ex. 31], the EC50 in series [1] was determined as 20.5 nM. For the same compound, the concentration giving a half-maximal response (EC50) in series [2] stood at 12.5 nM. In addition, in series [3], the “Blood glucose (ED25)” value was found to be 3.2 mg/kg and the “Triglyceride (ED25)” value is 12.6 mg/kg. In addition, in series [4], the “Safety index (TC25 nM/EC50 nM)” value worked out at 5840 and the “Cytotoxicity in hepatocyte (TC25 uM)” value worked out at 73000 nM.

As to “5-(4-[2-(N-methyl-N-2-(4-(4-isopropyl)pyridinyl)amino)ethoxy]benzyl)-2,4-thiazolidinedione [Ex. 36]”, the EC50 in series [1] was 20.9 nM. For the same compound, the EC50 in series [2] amounted to 16.3 nM. Besides, in series [3], the “Blood glucose (ED25)” value amounted to 3.5 mg/kg and the “Triglyceride (ED25)” value was found to be 14.9 mg/kg. Moreover, in series [4], the “Safety index (TC25 nM/EC50 nM)” value is given as 4663 and the “Cytotoxicity in hepatocyte (TC25 uM)” value came out at 76000 nM.

For `COc1ccc(Oc2ccnc(N(C)CCOc3ccc(CC4SC(=O)NC4=O)cc3)c2)cc1` (stereo not drawn) [Ex. 35, 5-(4-[2-(N-methyl-N-(2-(4-(4-methoxy)phenoxy)pyridinyl)amino)ethoxy]benzyl)-2,4-thiazolidinedione], the EC50 in series [1] was 19.3 nM. Further, the EC50 in series [2] was determined as 9.6 nM. For the same compound, in series [3], the “Blood glucose (ED25)” value was 2.5 mg/kg and the “Triglyceride (ED25)” value is recorded as 9.1 mg/kg. In addition, in series [4], the “Safety index (TC25 nM/EC50 nM)” value worked out at 10000 and the “Cytotoxicity in hepatocyte (TC25 uM)” value was 96000 nM.

Regarding `CN(CCOc1ccc(CC2SC(=O)NC2=O)cc1)c1cc(Oc2ccc(F)cc2)ncn1` (stereo not drawn) [Ex. 23, 5-(4-[2-(N-methyl-N-(6-(4-(4-fluoro)phenoxy)pyrimidinyl)amino)ethoxy]benzyl)-2,4-thiazolidinedione], in series [1], the EC50 was found to be 2.4 nM. Moreover, the EC50 in series [2] was 0.81 nM. For the same compound, in series [3], the “Blood glucose (ED25)” value amounted to 0.25 mg/kg and the “Triglyceride (ED25)” value is on record as 2.2 mg/kg. Further, in series [4], the “Safety index (TC25 nM/EC50 nM)” value came to 87654 and the “Cytotoxicity in hepatocyte (TC25 uM)” value came out at 71000 nM.

For the compound `CC(C)c1ccc(Oc2cc(N(C)CCOc3ccc(CC4SC(=O)NC4=O)cc3)ncn2)cc1` (stereo not drawn) [Ex. 30, 5-(4-[2-(N-methyl-N-(6-(4-(4-isopropyl)phenoxy)pyrimidinyl)amino)ethoxy]benzyl)-2,4-thiazolidinedione], in series [1], the EC50 worked out at 13.3 nM. For the same compound, the EC50 in series [2] was determined as 6.5 nM. Further, in series [3], the “Blood glucose (ED25)” value is on record as 2.1 mg/kg and the “Triglyceride (ED25)” value came to 21.2 mg/kg. Also, in series [4], the “Safety index (TC25 nM/EC50 nM)” value is on record as 11077 and the “Cytotoxicity in hepatocyte (TC25 uM)” value is 72000 nM.

On to `CCc1ccc(Oc2cc(N(C)CCOc3ccc(CC4SC(=O)NC4=O)cc3)ncn2)cc1` (stereo not drawn) [Ex. 28, 5-(4-[2-(N-methyl-N-(6-(4-(4-ethyl)phenoxy)pyrimidinyl)amino)ethoxy]benzyl)-2,4-thiazolidinedione], for which the EC50 in series [1] amounted to 5.2 nM. The EC50 in series [2] turned out to be 2.1 nM. Besides, in series [3], the “Blood glucose (ED25)” value came out at 1.8 mg/kg and the “Triglyceride (ED25)” value is 16.9 mg/kg. Moreover, in series [4], the “Safety index (TC25 nM/EC50 nM)” value is recorded as 40476 and the “Cytotoxicity in hepatocyte (TC25 uM)” value worked out at 85000 nM.

For `COc1ccc(Oc2cc(N(C)CCOc3ccc(CC4SC(=O)NC4=O)cc3)ncn2)cc1` (stereo not drawn) [Ex. 25, 5-(4-[2-(N-methyl-N-(6-(4-(4-methoxy)phenoxy)pyrimidinyl)amino)ethoxy]benzyl)-2,4-thiazolidinedione], in series [1], the EC50 was found to be 0.2 nM. The concentration giving a half-maximal response (EC50) in series [2] worked out at 0.11 nM. In addition, in series [3], the “Blood glucose (ED25)” value was found to be 0.15 mg/kg and the “Triglyceride (ED25)” value stood at 0.5 mg/kg. Moreover, in series [4], the “Safety index (TC25 nM/EC50 nM)” value amounted to 727272 and the “Cytotoxicity in hepatocyte (TC25 uM)” value stood at 80000 nM.

For `CCOc1ccc(Oc2cc(N(C)CCOc3ccc(CC4SC(=O)NC4=O)cc3)ncn2)cc1` (stereo not drawn) [Ex. 26, 5-(4-[2-(N-methyl-N-(6-(4-(4-ethoxy)phenoxy)pyrimidinyl)amino)ethoxy]benzyl)-2,4-thiazolidinedione], the concentration for a half-maximal effect (EC50) in series [1] is 14.4 nM. In series [2], the EC50 is 7.7 nM. Further, in series [3], the “Blood glucose (ED25)” value turned out to be 0.8 mg/kg and the “Triglyceride (ED25)” value is recorded as 4.3 mg/kg. For the same compound, in series [4], the “Safety index (TC25 nM/EC50 nM)” value is reported as 12338 and the “Cytotoxicity in hepatocyte (TC25 uM)” value was 95000 nM.

`CC(C)Oc1ccc(Oc2cc(N(C)CCOc3ccc(CC4SC(=O)NC4=O)cc3)ncn2)cc1` (stereo not drawn) [Ex. 27, 5-(4-[2-(N-methyl-N-(6-(4-(4-isopropoxy)phenoxy)pyrimidinyl)amino)ethoxy]benzyl)-2,4-thiazolidinedione]: in series [1], the half-maximal effective concentration (EC50) came out at 35.5 nM. Further, in series [2], the 50% effective concentration (EC50) turned out to be 21.7 nM. Moreover, in series [3], the “Blood glucose (ED25)” value turned out to be 0.8 mg/kg and the “Triglyceride (ED25)” value turned out to be 4.5 mg/kg. Moreover, in series [4], the “Safety index (TC25 nM/EC50 nM)” value came out at 3594 and the “Cytotoxicity in hepatocyte (TC25 uM)” value was determined as 78000 nM.

Consider `CN(CCOc1ccc(C=C2SC(=O)NC2=O)cc1)c1cc(Oc2ccccc2)ncn1` [Ex. 1], for which the EC50 in series [1] turned out to be 58 nM. Further, the EC50 in series [2] was determined as 38 nM. For the same compound, in series [3], the “Blood glucose (ED25)” value is 4.0 mg/kg and the “Triglyceride (ED25)” value is recorded as 30 mg/kg. Also, in series [4], the “Safety index (TC25 nM/EC50 nM)” value worked out at 2578 and the “Cytotoxicity in hepatocyte (TC25 uM)” value is 98000 nM.

In the case of `CN(CCOc1ccc(CC2SC(=O)NC2=O)cc1)c1cc(Oc2ccc(Cl)cc2)ncn1` (stereo not drawn) [Ex. 24, 5-(4-[2-(N-methyl-N-(6-(4-(4-chloro)phenoxy)pyrimidinyl)amino)ethoxy]benzyl)-2,4-thiazolidinedione], the EC50 in series [1] was 0.2 nM. Besides, the EC50 in series [2] was determined as 0.1 nM. Moreover, in series [3], the “Blood glucose (ED25)” value was 0.18 mg/kg and the “Triglyceride (ED25)” value is listed as 0.6 mg/kg. In series [4], the “Safety index (TC25 nM/EC50 nM)” value is listed as 750000 and the “Cytotoxicity in hepatocyte (TC25 uM)” value was 75000 nM.

For the origin of these results see patent publication US6787551B2, “Thiazolidinedione derivatives and pharmaceutical composition comprising the same” (Chong Kun Dang Pharmaceutical Corporation, priority 2002, dated 2004).
